Assay results reported in ChEMBL document CHEMBL5537109, “Natural products as potential lead compounds to develop new antiviral drugs over the past decade” (Eur J Med Chem, 2023).
Numbered stars: 1 amine (or outer) side, 2 acyl side, 3 side chain; on linkers, the order of the positions; unused ones are H or OH. Bridge positions count the residues as written; N and C are the ends. Square brackets hold non-standard residues; d marks the D form. Peptide text beside a SMILES is read from it. X2 = CCCCCCCCC[C@@H](CCCC(=O)[*:1])O[*:2]; d(aThr) = C[C@@H](O)[C@@H](N)C(=O)O; aIle = CC[C@@H](C)[C@H](N)C(=O)O

Experiments:
[1] = biological target: Human immunodeficiency virus type 1 protease (Human immunodeficiency virus 1, UniProt Q72874); test: Inhibition of HIV-1 protease
[2] = tested on: Human immunodeficiency virus 1; test: Antiviral activity against HIV-1 infected in human MT4 cells assessed as reduction in viral replication; type: functional; conditions: Human immunodeficiency virus 1, MT4
[3] = Cytotoxicity against human C8166 cells assessed as inhibition of cell growth incubated for 48 hrs by MTT assay; type: toxicity, cell-based
[4] = tested on: Human immunodeficiency virus 1; test: Anti-HIV activity against HIV-1 IIIB infected in human C8166 cells assessed as inhibition of virus-induced cytopathic effect by MTT assay; type: functional, organism-based; conditions: Human immunodeficiency virus 1, IIIB
[5] = tested on: Influenza A virus; test: Antiviral activity against influenza A virus H5N1 infected in dog MDCK cells assessed as viral growth inhibition; type: functional, organism-based
[6] = tested on: Influenza A virus; test: Antiviral activity against influenza A virus H1N1(A/PR/8/34) infected in MDCK cells assessed as inhibition of cytopathic effect incubated for 48 hrs by MTT assay; type: functional, organism-based
[7] = Inhibition of Influenza A virus A/California/04/2009 (H1N1) N-terminal his tagged domain of PA endonuclease expressed in Escherichia coli BL21 (DE3) cells
[8] = tested on: Influenza A virus; test: Antiviral activity against influenza A virus A/Hong Kong/1/68 (HK1, H3N2) infected in dog MDCK cells assessed as cytopathic effect; type: functional, organism-based
[9] = Cytotoxicity against MDCK cells assessed as inhibition of cell growth incubated for 48 hrs by MTT assay; type: toxicity, cell-based, Canis lupus familiaris; conditions: dog
[10] = tested on: Human immunodeficiency virus 1; test: Antiviral activity against wild-type HIV-1 NL4-3 infected in human MT4 cells assessed as inhibition of viral growth by measuring reduction in p24 antigen level incubated for 3 to 7 days by ELISA analysis; type: functional, organism-based; conditions: Human immunodeficiency virus 1, NL4-3, MT4
[11] = tested on: Human immunodeficiency virus 1; test: Antiviral activity against HIV-1 harboring reverse transcriptase infected in human MT4 cells assessed as reduction in virus-induced cytopathic effect; type: functional, organism-based; conditions: Human immunodeficiency virus 1, MT4
[12] = tested on: RAW264.7; test: Cytotoxicity against mouse RAW264.7 cells assessed as reduction in cell viability incubated for 24 hrs by CCK-8 method; type: functional
[13] = tested on: Human immunodeficiency virus 1; test: Antiviral activity against HIV1 infected in C8166 cells assessed as reduction in viral replication measured after 3 days by ELISA; type: functional, organism-based
[14] = Cytotoxicity against human C8166 cells assessed as reduction in cell growth by MTT assay; type: toxicity, cell-based
[15] = Cytotoxicity against human C8166 cells assessed as inhibition of cell growth by MTT assay; type: toxicity, cell-based
[16] = tested on: Human alphaherpesvirus 1; test: Antiviral activity against HSV-1 assessed as inhibition of viral growth; type: functional, organism-based
[17] = Cytotoxicity against African green monkey Vero cells assessed as reduction in cell viability measured after 72 hrs by MTT assay; type: toxicity, cell-based; conditions: chlorocebus sabaeus
[18] = tested on: Human alphaherpesvirus 1; test: Antiviral activity against HSV-1 KOS infected in African green monkey Vero cells assessed as reduction in virus induced cytopathogenicity by plaque reduction assay; type: functional, organism-based; conditions: Human alphaherpesvirus 1, KOS
[19] = Cytotoxicity against African green monkey Vero E6 cells assessed as reduction in cell growth incubated for 24 hrs by WST-8 assay; type: toxicity, cell-based, Vero C1008; conditions: chlorocebus sabaeus
[20] = tested on: SARS-CoV-2; test: Antiviral activity against SARS-CoV-2 NVDBB-2220 infected in African green monkey Vero cells assessed as reduction in virus-induced cytopathic effect incubated for 5 days by microscopic analysis; type: functional, organism-based; conditions: Severe acute respiratory syndrome coronavirus 2, NVDBB-2220, Vero, 120 h
[21] = tested on: SARS-CoV-2; test: Antiviral activity against SARS-CoV-2 infected in African green monkey Vero cells assessed as reduction in viral replication; type: functional, organism-based; conditions: Severe acute respiratory syndrome coronavirus 2, Vero
[22] = Cytotoxicity against African green monkey Vero cells assessed as reduction in cell viability measured after 72 hrs by MTS assay; type: toxicity, cell-based; conditions: chlorocebus sabaeus
[23] = tested on: Huh-7; test: Cytotoxicity against human Huh-7 cells assessed as reduction in cell viability incubated for 72 hrs by MTT assay; type: functional
[24] = tested on: HEK-293T; test: Cytotoxicity against human HEK293T cells assessed as cell growth inhibition measured after 72 hrs by MTT assay; type: functional

C=C(C)[C@]12C[C@@H](COC(C)=O)[C@@]3(OO1)[C@@H]1[C@H]2OCCCCCC[C@@H](C)[C@H]2[C@H](C)[C@H](OC(=O)c4ccccc4)[C@@](O)([C@H](O)[C@@]4(CO)O[C@@H]14)[C@@H]23
IC50 [1]: 4.3 µM
EC90 [2]: 0.0004 µM

COc1cc(OC)c2c(c1OC)C[C@H]1NCCc3cc4c(c-2c31)OCO4
CC50 at 48 h [3]: 43.6 µM
EC50 [4]: 5.8 µM

O=C(O[C@H]1[C@H](Oc2ccc(O)cc2C(=O)O)O[C@H](CO)[C@@H](O)[C@@H]1OC(=O)c1cc(O)c(O)c(O)c1)c1cc(O)c(O)c(O)c1
IC50 [5]: 24.6 µM
EC50 [6]: 30.7 µM
IC50 [7]: 30.7 µM
EC50 [8]: 28.2 µM
CC50 at 48 h [9]: > 1000 µM

O=C1C=C2C[C@H](O[C@H]3C[C@@]45OC(=O)C=C4C[C@@H]3N3CCCC[C@H]35)[C@@H]3C[C@@]2(O1)[C@H]1CCCN31
EC50 [10]: 120 µM

C=C(C)[C@@]1(OC(C)=O)[C@H](OC(C)=O)[C@@H]2[C@H](OC(C)=O)[C@@]3(C)O[C@@]4([C@@H]3O)[C@@H](OC(=O)c3ccccc3)[C@@H](C)C[C@H]4[C@@]2(O)[C@H](C)[C@@H]1OC(=O)c1ccccc1
EC50 [11]: 0.21 µM
CC50 [12]: > 200 µM

C=C(C)[C@]12C[C@@H](COC(C)=O)[C@@]34OC5(O[C@@H]1[C@@H]3[C@@H]1O[C@]1(CO)[C@@H](O)[C@@]1(O)[C@H]4[C@H]([C@H](C)[C@@H]1OC(=O)c1ccccc1)[C@H](C)C[C@H](OC(=O)c1ccccc1)[C@H](OC(=O)c1ccccc1)CCC[C@H]5O)O2
EC50 [10]: 0.00025 µM

O=C1C=C2[C@H]3C=CC[C@]2(O1)[C@H]1CCCCN31
EC50 [10]: 45 µM

O=C(OC[C@H]1O[C@@H](Oc2ccc(O)cc2C(=O)O)[C@H](O)[C@@H](OC(=O)c2cc(O)c(O)c(O)c2)[C@@H]1O)c1cc(O)c(O)c(O)c1
IC50 [5]: 11.6 µM
EC50 [6]: 20.2 µM
IC50 [7]: 29.2 µM
EC50 [8]: 33.3 µM
CC50 at 48 h [9]: 964 µM

C=C(C)[C@@]1(OC(=O)c2ccccc2)[C@H](OC(C)=O)[C@@H]2[C@H](OC(C)=O)[C@@]3(C)O[C@@]4([C@@H]3O)[C@@H](OC(=O)c3ccccc3)[C@@H](C)C[C@H]4[C@@]2(O)[C@H](C)[C@@H]1OC(C)=O
EC50 [11]: 0.095 µM
CC50 [12]: > 200 µM

CC(C)CC(=O)O[C@H]1/C=C/C=C\C(=O)O[C@H]2[C@@H](C)C[C@@H]3[C@]2(O)[C@H](O)[C@@]2(CO)O[C@H]2[C@H]2[C@H]4OC5(c6ccccc6)O[C@@H]([C@@H](C)[C@@]23O5)[C@@]4(O)[C@](C)(O)C[C@H]2CC[C@H]1[C@H]2C
EC50 [13]: 0.76 10^-3nmol
CC50 [14]: 0.0222 µM

C=CC(C)(C)c1cc2cc3c(c(CC=C(C)C)c2oc1=O)O[C@H](C(C)(C)O)C3
CC50 [15]: > 200 µM

CCCCCCCCC[C@H]1CCCC(=O)N[C@H]([C@@H](C)O)C(=O)N[C@H](C)C(=O)N2CCC[C@H]2C(=O)N[C@@H](CCC(N)=O)C(=O)N[C@H](Cc2ccc(O)cc2)C(=O)N[C@@H]([C@H](C)CC)C(=O)O1 ([d(aThr)][dA]PQ[dY][aIle]; linker N-C via X2)
EC50 [16]: 14 µM

COc1ccc2c(c1)N=C1c3cc(-c4nccc5c4[nH]c4cc(OC)ccc45)c(C)n3CCC12O (racemic)
CC50 at 72 h [17]: 74.2 µM
EC50 [18]: 2.12 µM

O=C1c2c(O)cc(O)cc2O[C@H](c2cc(O)c(O)c(O)c2)[C@H]1O [AMPELOPSIN]
CC50 at 24 h [19]: > 200 µM

C=C1C(=O)O[C@@]23[C@H]1CC[C@@H](C)[C@@H]2CC[C@@]1(C)O[C@@H]31 [ARTEANNUIN B]
EC50 [20]: 10.3 µM

C[C@H]1[C@H](OC(=O)CCC(=O)O)O[C@@H]2O[C@@]3(C)CC[C@H]4[C@H](C)CC[C@@H]1[C@@]24OO3 [ARTESUNATE]
EC50 [20]: 13 µM

O=c1cc(-c2ccccc2)oc2cc(O)c(O)c(O)c12 [BAICALEIN]
CC50 at 24 h [19]: > 200 µM

CC[C@H]1CN2CCc3cc(OC)c(OC)cc3[C@@H]2C[C@@H]1C[C@H]1NCCc2cc(O)c(OC)cc21 [CEPHAELINE]
EC50 [21]: 0.0123 µM
CC50 at 72 h [22]: 46.3 µM
CC50 [23]: 3.03 µM
CC50 [24]: 2 µM

CC[C@H]1CN2CCc3cc(OC)c(OC)cc3[C@@H]2C[C@@H]1C[C@H]1NCCc2cc(OC)c(OC)cc21 [EMETINE]
EC50 [21]: 7.71 µM
CC50 at 72 h [22]: 2.17 µM
CC50 [23]: 33.4 µM
CC50 [24]: 37.8 µM

O[C@H]1[C@H]2c3cc4c(cc3CN3CCC(=C[C@@H]1O)[C@H]23)OCO4 [LYCORINE]
EC50 [21]: 0.439 µM
CC50 at 72 h [22]: > 1000 µM
CC50 [23]: 0.834 µM
CC50 [24]: 1.04 µM

O=c1c(O)c(-c2cc(O)c(O)c(O)c2)oc2cc(O)cc(O)c12 [MYRICETIN]
CC50 at 24 h [19]: > 200 µM
